Data reported in patent US20260250257A1, “ANTIBACTERIAL AND SYNERGISTIC ACTIVE COMPOUND AND USE THEREOF” (EAST CHINA UNIVERSITY OF SCIENCE AND TECHNOLOGY, priority 2023, published 2026).
Values after ≈ are worked out from the molar mass of the structure shown.

How the values were obtained:
Type in all cases: cell-based
[1] = tested on: ATCC19606 strain (Acinetobacter baumannii); assay: Checkerboard antibacterial synergistic activity test with polymyxin E (FIC); parameters: key: FIC≤0.5 synergy; 0.5–1 additive; 1–2 indifferent; ≥2 antagonism; details: combined with polymyxin E
Summary of the method: (§1)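 Polymyxin E was diluted in MH broth to 16–0.015 μg/ml and the test compound to 256–4 μg/ml (two-fold series, pre-mixing concentrations), combined checkerboard-style in 96-well plates with bacterial suspension and blank controls, and incubated at 37° C. for 16 h. FIC ≤0.5 was scored synergistic, >0.5 to <1 additive, 1–2 indifferent, ≥2 antagonistic.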

[2] = tested on: ATCC25922 strain (Escherichia coli); assay: as above; parameters: key: FIC≤0.5 synergy; 0.5–1 additive; 1–2 indifferent; ≥2 antagonism; details: combined with polymyxin E
Summary of the method: as §1

[3] = tested on: ATCC13883 strain (Klebsiella pneumoniae); assay: as above; parameters: key: FIC≤0.5 synergy; 0.5–1 additive; 1–2 indifferent; ≥2 antagonism; details: combined with polymyxin E
Summary of the method: as §1

[4] = tested on: ATCC9027 strain (Pseudomonas aeruginosa); assay: as above; parameters: key: FIC≤0.5 synergy; 0.5–1 additive; 1–2 indifferent; ≥2 antagonism; details: combined with polymyxin E
Summary of the method: as §1

[5] = tested on: ATCC19606 strain (Acinetobacter baumannii); assay: Broth microdilution, antibacterial activity of the compound used alone
Text: (§2) The broth microdilution method was used to test the antibacterial effects of the compounds of the present invention against various Gram-negative bacterial strains when used alone.

[6] = tested on: ATCC25922 strain (Escherichia coli); assay: as above
Text: as §2

[7] = tested on: ATCC13883 strain (Klebsiella pneumoniae); assay: as above
Text: as §2

[8] = tested on: ATCC9027 strain (Pseudomonas aeruginosa); assay: as above
Text: as §2

| SMILES | Synergistic activity (FIC value) ATCC19606 [1] | Synergistic activity (FIC value) ATCC25922 [2] | Synergistic activity (FIC value) ATCC13883 [3] | Synergistic activity (FIC value) ATCC9027 [4] | Antibacterial activity of the compound of Formula I, ATCC19606 [5] [µg/mL] | Antibacterial activity of the compound of Formula I, ATCC25922 [6] [µg/mL] | Antibacterial activity of the compound of Formula I, ATCC13883 [7] [µg/mL] | Antibacterial activity of the compound of Formula I, ATCC9027 [8] [µg/mL] | MIC ([5]; read-out: Antibacterial activity of the compound of Formula I, ATCC19606) [µg/mL] | MIC ([6]; read-out: Antibacterial activity of the compound of Formula I, ATCC25922) [µg/mL] | MIC ([7]; read-out: Antibacterial activity of the compound of Formula I, ATCC13883) [µg/mL] | MIC ([8]; read-out: Antibacterial activity of the compound of Formula I, ATCC9027) [µg/mL] |
| --- | --- | --- | --- | --- | --- | --- | --- | --- | --- | --- | --- | --- |
| Clc1ccc(Oc2cc(Cl)ccc2-c2c[nH]c(N=C3NCCCN3)n2)c(Cl)c1 [Compound I-150] | 0.31 | 0.14 | 0.09 | 0.06 | 256 | 256 | 256 | 256 |  |  |  |  |
| Fc1ccc(-c2csc(N=C3NCCCN3)n2)c(Oc2ccc(Cl)cc2Cl)c1 [Compound I-151] | 0.03 | 0.18 | 0.16 | 0.28 | 256 | 256 | 256 | 256 |  |  |  |  |
| Cc1ccccc1Oc1cccc(-c2coc(N=C3NCCCN3)n2)c1 [Compound I-152] | 0.38 | 0.04 | 0.19 | 0.04 | 256 | 256 | 256 | 256 |  |  |  |  |
| Cc1ccc(Oc2cccc(-c3csc(N=C4NCCCN4)n3)c2)c(C)c1 [Compound I-153] | 0.31 | 0.14 | 0.09 | 0.06 | 256 | 256 | 256 | 256 |  |  |  |  |
| COc1ccc(Oc2cccc(-c3csc(N=C4NCCCN4)n3)c2)c(C)c1 [Compound I-154] | 0.38 | 0.04 | 0.19 | 0.04 | 256 | 256 | 256 | 256 |  |  |  |  |
| CS(=O)(=O)c1ccc(Oc2ccccc2Cl)cc1-c1nc(N=C2NCCCN2)sc1Cl [Compound I-155] | 0.03 | 0.18 | 0.16 | 0.28 | 256 | 128 | 128 | 64 |  |  |  |  |
| Oc1cc(Oc2ccc(Cl)cc2Cl)cc(-c2csc(N=C3NCCCN3)n2)c1 [Compound I-156] | 0.04 | 0.2 | 0.13 | 0.28 | 256 | 256 | 256 | 256 |  |  |  |  |
| N#Cc1cc(Oc2ccccc2I)cc(-c2coc(N=C3NCCCN3)n2)c1 [Compound I-157] | 0.31 | 0.14 | 0.09 | 0.06 | 256 | 256 | 256 | 256 |  |  |  |  |
| O=[N+]([O-])c1ccc(Oc2ccc(I)cc2I)cc1-c1c[se]c(N=C2NCCCN2)n1 [Compound I-158] | 0.03 | 0.18 | 0.16 | 0.28 | 256 | 256 | 256 | 256 |  |  |  |  |
| COc1ccc(Oc2cc(Br)cc(-c3csc(N=C4NCCCN4)n3)c2)c(OC)c1 [Compound I-159] | 0.31 | 0.14 | 0.09 | 0.06 | 256 | 256 | 256 | 256 |  |  |  |  |
| Clc1cc(Oc2ccc(Cl)cc2Cl)cc(-c2csc(N=C3NCCCN3)n2)c1 [Compound I-160] | 0.03 | 0.18 | 0.16 | 0.28 | 256 | 256 | 256 | 256 |  |  |  |  |
| Fc1cc(Oc2ccc(Cl)cc2Cl)cc(-c2csc(N=C3NCCCN3)n2)c1 [Compound I-161] | 0.31 | 0.14 | 0.09 | 0.06 | 256 | 256 | 256 | 256 |  |  |  |  |
| Cc1[nH]c(N=C2NCCCN2)nc1-c1cc(C(C)(C)C)cc(C(C)(C)C)c1 [Compound I-162] | 0.03 | 0.18 | 0.16 | 0.28 | 256 | 256 | 256 | 256 |  |  |  |  |
| CC(C)(C)c1cc(-c2csc(NC3=NCCCN3)n2)cc(C(C)(C)C)c1O [Compound I-163] | 0.38 | 0.04 | 0.19 | 0.04 |  |  |  |  | 256 (≈ 662 µM) | 128 (≈ 331 µM) | 128 (≈ 331 µM) | 64 (≈ 166 µM) |
| CC(C)c1ccccc1-c1nc(N=C2NCCCN2)sc1Br [Compound I-164] | 0.15 | 0.39 | 0.33 | 0.62 | 256 | 256 | 256 | 256 |  |  |  |  |
